The values that follow come from patent US20050222200A1, “AMIDE DERIVATIVES AS ION CHANNEL LIGANDS AND PHARMACEUTICAL COMPOSITIONS AND METHODS OF USING THE SAME” (Renovis, Inc., priority 2003, published 2005).

A word on the inhibition: it is the relative decrease from the control value, in per cent.

T1 sequence (O35433 whole entry): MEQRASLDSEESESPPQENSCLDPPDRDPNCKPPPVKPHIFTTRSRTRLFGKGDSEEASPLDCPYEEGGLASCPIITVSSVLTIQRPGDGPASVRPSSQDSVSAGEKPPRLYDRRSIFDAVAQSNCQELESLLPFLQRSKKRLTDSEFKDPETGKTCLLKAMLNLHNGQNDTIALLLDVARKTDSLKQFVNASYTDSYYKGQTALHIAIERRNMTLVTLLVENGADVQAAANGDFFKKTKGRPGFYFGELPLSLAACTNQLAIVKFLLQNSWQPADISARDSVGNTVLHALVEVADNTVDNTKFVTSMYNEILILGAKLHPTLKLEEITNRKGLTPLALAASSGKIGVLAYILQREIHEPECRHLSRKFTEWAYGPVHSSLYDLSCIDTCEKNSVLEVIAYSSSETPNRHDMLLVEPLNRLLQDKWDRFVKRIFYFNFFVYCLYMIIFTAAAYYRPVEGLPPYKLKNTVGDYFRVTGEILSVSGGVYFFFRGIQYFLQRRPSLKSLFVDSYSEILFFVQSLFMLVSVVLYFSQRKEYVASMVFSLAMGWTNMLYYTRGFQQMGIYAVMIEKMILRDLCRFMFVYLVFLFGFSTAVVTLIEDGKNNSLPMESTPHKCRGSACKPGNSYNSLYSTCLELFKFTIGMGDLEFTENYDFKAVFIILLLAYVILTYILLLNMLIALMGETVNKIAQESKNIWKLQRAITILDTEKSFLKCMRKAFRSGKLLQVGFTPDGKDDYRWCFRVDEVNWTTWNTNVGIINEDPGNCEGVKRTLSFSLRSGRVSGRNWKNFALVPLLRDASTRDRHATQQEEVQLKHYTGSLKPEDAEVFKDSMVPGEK

One assay concerns the target T1, VR1 (Rattus norvegicus, UniProt O35433). Briefly: Whole-cell patch clamp electrophysiology: inhibition of capsaicin induced current in DRG neurons. It is filed as cell-based, rats. More on the design: Dorsal root ganglion (DRG) neurons were recovered from either neonatal or adult rats; endogenous in cells; host or cells: primary rat dorsal root ganglion neurons. To be noted: DRG neuron; concentration 100 nM; treatment time 20 seconds; 500nM capsaicin; held at -80mV; DRG neurons. The text has this:
Whole-cell patch clamp electrophysiology
Dorsal root ganglion (DRG) neurons were recovered from either neonatal or adult rats and plated onto poly-D-lysine coated glass coverslips. The plated neurons were transferred into a chamber to allow drug solutions to be added to the cells using a computer-controlled solenoid-valve based perfusion system. The cells were imaged using standard DIC optics. Cells were patched using finely-pulled glass electrodes. Voltage-clamp electrophysiology experiments were carried out using an Axon Instruments Multiclamp amplified controlled by pCLAMP8 software.
The cells were placed into a whole-cell voltage clamp and held at a voltage of –80mV while monitoring the membrane current in gap-free recording mode.
500nM capsaicin was added for 30 seconds as a control. Test compounds at various concentrations were added to the cells for 1 minute prior to a 30 second capsaicin application. Differences between control experiments and drug positive capsaicin experiments were used to determine the efficacy of each test compound. All compounds that inhibited capsaicin induced current greater than 50% were considered positives.
`COc1cc(NC(=O)c2ccc(/C=C/C(C)C)cc2)cc(C(F)(F)F)c1` [Compound 155]: the inhibition at 0.1 µM stood at 50%.

Still in this assay, the particulars now being: same neurons, capsaicin alone as comparison.
As to `COc1cc(NC(=O)c2ccc(/C=C/C(C)C)cc2)cc(C(F)(F)F)c1` [Compound 155], the “calcium influx in neurons, capsaicin in presence of compound vs capsaicin alone (Figure 2)” value was “less calcium influx”.

The target of the next assay is T1, VR1. Briefly: Calcium imaging assay: inhibition of capsaicin induced calcium influx in DRG neurons (Fura2, microscope). It is filed as cell-based. More on the design: endogenous in cells; host or cells: DRG neurons. To be noted: DRG neuron; concentration 300 nM; treatment time 20 sec; capsaicin 250 nM; DRG neurons. In outline:
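Fura2-loaded rat DRG neurons imaged by microscope; test compound perfused 1 min, then capsaicin (250 nM) applied with compound for 20–60 s. Calcium influx followed as 340/380 nm fluorescence ratio; inhibition above 75% scored positive.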
`COc1cc(NC(=O)c2ccc(/C=C/C(C)C)cc2)cc(C(F)(F)F)c1` [Compound 155]: the inhibition at 0.3 µM was less than 75%.

The same assay, now with this note: administered with capsaicin.
As to `COc1cc(NC(=O)c2ccc(/C=C/C(C)C)cc2)cc(C(F)(F)F)c1` [Compound 155], the “fluorescence reflecting calcium ion influx when administered with capsaicin (Figure 1)” value was “reduced”.

The same assay, now with this note: capsaicin stimulation; class symbols per legend.
For `C/C(=C\C(C)(C)C)c1ccc(C(=O)Nc2ccc(C(F)(F)F)cn2)cc1` [Compound 344], the “inhibition of calcium ion influx induced by capsaicin stimulation” value (“inhibition of calcium ion influx induced” below) is listed as “+ (compound exhibited 0-25% inhibition of calcium ion influx induced by capsaicin stimulation)”.

For `C/C(=C\C(C)(C)C)c1ccc(C(=O)NCCc2ccccc2Cl)cc1` [Compound 286], the “inhibition of calcium ion influx induced” value is recorded as “+ (compound exhibited 0-25% inhibition of calcium ion influx induced by capsaicin stimulation)”.

Turning to `CC(C)(C)C#Cc1ccc(C(=O)Nc2ccc(S(C)(=O)=O)cc2)cn1` [Compound 427], the “inhibition of calcium ion influx induced” value is reported as “++ (compound exhibited 25-50% inhibition of calcium ion influx induced by capsaicin stimulation)”.

Turning to `CCC/C=C/c1ccc(C(=O)Nc2ccc(Cl)nc2)cc1` [Compound 259], the “inhibition of calcium ion influx induced” value is listed as “+ (compound exhibited 0-25% inhibition of calcium ion influx induced by capsaicin stimulation)”.

On to `C/C(=C\C(C)(C)C)c1ccc(C(=O)NCc2ccccn2)cc1` [Compound 308], for which the “inhibition of calcium ion influx induced” value is “+ (compound exhibited 0-25% inhibition of calcium ion influx induced by capsaicin stimulation)”.

Regarding `CCN(CC)c1ccc(NC(=O)c2ccc(C#CC(C)(C)C)nc2)cc1` [Compound 430], the “inhibition of calcium ion influx induced” value was “+ (compound exhibited 0-25% inhibition of calcium ion influx induced by capsaicin stimulation)”.

As to `C/C(=C\C(C)(C)C)c1ccc(C(=O)Nc2ccc(C)cc2C)cc1` [Compound 338], the “inhibition of calcium ion influx induced” value was “+ (compound exhibited 0-25% inhibition of calcium ion influx induced by capsaicin stimulation)”.

For `CC(C)(C)C#Cc1ccc(C(=O)Nc2ccc(Cl)cc2)cc1` [Compound 365], the “inhibition of calcium ion influx induced” value is recorded as “+ (compound exhibited 0-25% inhibition of calcium ion influx induced by capsaicin stimulation)”.

Turning to `CCC/C=C/c1ccc(C(=O)Nc2cc(CC)ccn2)cc1` [Compound 256], the “inhibition of calcium ion influx induced” value is “+ (compound exhibited 0-25% inhibition of calcium ion influx induced by capsaicin stimulation)”.

For the compound `CC(C)(C)C#Cc1ccc(C(=O)Nc2ccc(Cl)c(C(F)(F)F)c2)cc1` [Compound 368], the “inhibition of calcium ion influx induced” value was “++++ (compound exhibited 75% or greater inhibition of calcium ion influx induced by capsaicin stimulation)”.

`CC(C)(C)C#Cc1ccc(C(=O)Nc2ccc(S(C)(=O)=O)cc2)cc1` [Compound 377]: the “inhibition of calcium ion influx induced” value is “++++ (compound exhibited 75% or greater inhibition of calcium ion influx induced by capsaicin stimulation)”.

Regarding `COc1cccc(NC(=O)c2ccc(/C=C/C(F)(F)F)cc2)c1` [Compound 389], the “inhibition of calcium ion influx induced” value is reported as “++++ (compound exhibited 75% or greater inhibition of calcium ion influx induced by capsaicin stimulation)”.

In the case of `CC(C)(C)C#Cc1ccc(C(=O)Nc2ccc(C(F)(F)F)cn2)cc1` [Compound 383], the “inhibition of calcium ion influx induced” value is listed as “+++ (compound exhibited 50-75% inhibition of calcium ion influx induced by capsaicin stimulation)”.

Consider `COc1ccc(NC(=O)c2ccc(/C(C)=C/C(C)(C)C)cc2)cc1Cl` [Compound 330], for which the “inhibition of calcium ion influx induced” value is recorded as “+ (compound exhibited 0-25% inhibition of calcium ion influx induced by capsaicin stimulation)”.

With `CC(C)(C)C#Cc1ccc(C(=O)Nc2cccc(C(F)(F)F)c2)cc1` [Compound 374], the “inhibition of calcium ion influx induced” value is given as “++++ (compound exhibited 75% or greater inhibition of calcium ion influx induced by capsaicin stimulation)”.

`C/C(=C\C(C)(C)C)c1ccc(C(=O)NC(c2ccccc2)c2ccccc2)cc1` [Compound 283]: the “inhibition of calcium ion influx induced” value is “+ (compound exhibited 0-25% inhibition of calcium ion influx induced by capsaicin stimulation)”.

For the compound `COc1ccc(NC(=O)c2ccc(C#CC(C)(C)C)nc2)cc1Cl` [Compound 416], the “inhibition of calcium ion influx induced” value is “++ (compound exhibited 25-50% inhibition of calcium ion influx induced by capsaicin stimulation)”.
